Reference: patent publication US9062050B2, “Inhibitor of JAK1 and JAK2” (Eli Lilly and Company, priority 2012, dated 2015)

Assays:
IL-6-STAT3 signaling = assay: DS1-AlphaScreen-pSTAT3 cell-based assay; conditions: DS1 cells, IL6 10 ng/ml; read-out: IC50, inhibits IL-6-STAT3 signaling (pSTAT3)
Experimental: The DS1-AlphaScreen-pSTAT3-cell-based assay is used to examine the potency of compounds at blocking the IL6-stimulated STAT3 pathway. The JAK-STAT3 pathway is constitutively active in many types of cancers and is implicated in tumor cells for increasing proliferation, survival, and invasion. DS1 cells (ATCC) are cultured in RPMI complete medium with 10% FBS and then adopted and grown in DMEM/High Modified medium supplemented with 10% FBS at 37° C. at 95% humidity and under an atmosphere of 5% CO2. DS1 cells are plated at a density of 4×10^4 cells/well in 96 well-plates and cultured in serum-free culture medium at 37° C. for three hours, followed by pre-treatment either with vehicle alone (DMSO) or test compounds across a range of final concentrations from 0-20 μM for 10 min. IL6 (R&D System, 206-IL) is then added into the cell culture at 10 ng/ml final concentration, which is continued for an additional 30 min at 37° C. Finally, cells are lysed with 5× alpha lysis buffer and transferred to a 384-well plate (PerkinElmer, #6008280) filled with the reaction mixture (TGR Biosciences, South Australia, Australia, #TGRS3S10K) for pSTAT3 detection (#TGRS3SHV100). The plates are sealed and incubated at room temperature for 2 hours, and pSTAT3 is measured by using an Envision06 plate reader (TGR Biosciences, South Australia, Australia). The data are analyzed with ActivityBase 4.0.

JAK2 = JAK2 (Homo sapiens, UniProt O60674); assay: JAK LanthaScreen Kinase Assay (TR-FRET), JAK2; assay type: biochemical; design: purchased Life Technologies #PV4844; conditions: enzyme assay, 5 micromolar ATP, n=1; read-out: IC50 against JAK2
Source text: (§1) The JAK LanthaScreen™ Kinase Assay (Life Technologies, #PV4844) is used to determine compound IC50 values against the JAK1, JAK2, and JAK3 kinases. This kinase assay is a Time Resolved Fluorescence Resonance Energy Transfer (TR-FRET) assay format that uses long-lifetime terbium (Tb) labeled antibody as the donor species and Green Fluorescent Protein-Signal Transducers and Activators of Transcription (GFP-STAT1) as the acceptor species.
(§2) The TR-FRET ratio is used to monitor JAK1, JAK2, or JAK3 activity where an increase in phosphorylation of the GFP-STAT1 results in an increase in the TR-FRET ratio. Perform the kinase reaction using a 12.5 microliter reaction volume in shallow black 384-well Proxiplate (PerkinElmer, #6008260). […] Incubate at room temperature for 90 minutes, and read in an EnVision plate reader (PerkinElmer, #2104-0010) with 340 nm wavelength excitation filter and emission filters of 520 nm and 495 nm wavelengths. The ratio is derived from the emission wavelength for the GFP-STAT1 which is measured at 520 nanometer versus the emission at 495 nanometer for the Tb-anti-pSTAT1[pTyr701]. Derive the IC50 value for the compound using percent inhibition data, which is calculated from the reaction data relative to on-plate controls (active enzyme versus 2.0 micromolar control-inhibited enzyme). […]

JAK3 = target: T1, JAK3 (Homo sapiens, UniProt P52333); assay: JAK LanthaScreen Kinase Assay (TR-FRET), JAK3; assay type: biochemical
T1 sequence (P52333 1-1124): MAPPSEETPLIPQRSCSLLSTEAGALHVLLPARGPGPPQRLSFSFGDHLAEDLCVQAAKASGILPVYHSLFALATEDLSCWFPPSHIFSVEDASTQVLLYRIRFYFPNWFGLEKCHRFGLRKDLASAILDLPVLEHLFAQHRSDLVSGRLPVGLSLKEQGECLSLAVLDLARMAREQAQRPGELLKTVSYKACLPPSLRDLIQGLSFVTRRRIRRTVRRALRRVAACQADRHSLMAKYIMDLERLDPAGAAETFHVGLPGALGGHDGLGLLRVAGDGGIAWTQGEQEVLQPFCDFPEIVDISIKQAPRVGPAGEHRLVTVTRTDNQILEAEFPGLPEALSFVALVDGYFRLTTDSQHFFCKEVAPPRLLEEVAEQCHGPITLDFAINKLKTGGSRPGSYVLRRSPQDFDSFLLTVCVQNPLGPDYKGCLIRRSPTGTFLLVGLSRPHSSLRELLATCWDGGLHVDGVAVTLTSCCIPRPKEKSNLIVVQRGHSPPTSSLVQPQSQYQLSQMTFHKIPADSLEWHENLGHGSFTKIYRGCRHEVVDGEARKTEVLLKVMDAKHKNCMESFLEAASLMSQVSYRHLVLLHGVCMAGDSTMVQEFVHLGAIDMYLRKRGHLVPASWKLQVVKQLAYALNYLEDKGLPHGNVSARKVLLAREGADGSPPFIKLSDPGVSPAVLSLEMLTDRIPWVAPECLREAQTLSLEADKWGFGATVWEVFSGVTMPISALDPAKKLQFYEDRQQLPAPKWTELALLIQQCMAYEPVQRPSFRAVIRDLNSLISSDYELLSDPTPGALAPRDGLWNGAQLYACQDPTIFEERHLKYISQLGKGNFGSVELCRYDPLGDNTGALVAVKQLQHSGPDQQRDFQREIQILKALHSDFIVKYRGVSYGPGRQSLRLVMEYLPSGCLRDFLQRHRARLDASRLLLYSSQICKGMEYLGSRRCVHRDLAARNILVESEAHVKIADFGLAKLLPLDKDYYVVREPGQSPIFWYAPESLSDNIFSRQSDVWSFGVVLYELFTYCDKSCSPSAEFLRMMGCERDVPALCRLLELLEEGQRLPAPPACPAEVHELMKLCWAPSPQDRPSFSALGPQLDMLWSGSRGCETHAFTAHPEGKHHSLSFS
Source text: as §1, §2

JAK2, sequence (O60674 whole entry): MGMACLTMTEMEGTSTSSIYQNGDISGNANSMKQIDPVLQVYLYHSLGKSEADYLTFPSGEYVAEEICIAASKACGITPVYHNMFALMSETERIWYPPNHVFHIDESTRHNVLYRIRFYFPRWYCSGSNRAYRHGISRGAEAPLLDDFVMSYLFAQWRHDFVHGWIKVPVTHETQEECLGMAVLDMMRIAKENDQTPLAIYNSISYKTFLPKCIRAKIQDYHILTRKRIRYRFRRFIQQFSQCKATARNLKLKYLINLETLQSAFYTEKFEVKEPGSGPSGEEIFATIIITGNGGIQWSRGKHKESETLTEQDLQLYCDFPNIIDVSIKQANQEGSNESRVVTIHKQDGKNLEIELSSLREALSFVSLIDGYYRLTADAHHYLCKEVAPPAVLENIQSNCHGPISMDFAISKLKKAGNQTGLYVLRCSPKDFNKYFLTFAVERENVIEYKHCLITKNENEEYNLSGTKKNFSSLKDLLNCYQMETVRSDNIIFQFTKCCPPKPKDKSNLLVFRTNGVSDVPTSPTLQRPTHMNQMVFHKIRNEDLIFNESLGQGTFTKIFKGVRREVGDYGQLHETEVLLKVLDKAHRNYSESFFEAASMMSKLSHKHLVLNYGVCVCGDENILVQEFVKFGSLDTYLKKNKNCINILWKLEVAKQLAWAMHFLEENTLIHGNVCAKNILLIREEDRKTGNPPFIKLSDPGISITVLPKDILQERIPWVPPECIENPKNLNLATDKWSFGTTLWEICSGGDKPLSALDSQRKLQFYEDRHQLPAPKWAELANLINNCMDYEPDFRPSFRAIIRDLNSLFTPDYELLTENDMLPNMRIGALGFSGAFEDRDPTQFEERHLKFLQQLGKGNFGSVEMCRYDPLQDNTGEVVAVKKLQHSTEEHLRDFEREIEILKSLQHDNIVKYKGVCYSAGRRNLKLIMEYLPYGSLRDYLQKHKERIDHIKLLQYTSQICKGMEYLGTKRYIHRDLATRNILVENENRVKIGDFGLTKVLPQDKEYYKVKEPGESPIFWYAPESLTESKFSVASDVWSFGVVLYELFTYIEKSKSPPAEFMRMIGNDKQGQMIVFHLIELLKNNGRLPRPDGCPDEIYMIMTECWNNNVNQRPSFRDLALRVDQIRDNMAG

Cc1cc(Nc2ccc3ncn([C@@H]4CCc5ccc(F)cc54)c3n2)[nH]n1.Cl.Cl [Example 1, 3-[(1R)-6-fluoro-2,3-dihydro-1H-inden-1-yl]-N-(3-methyl-1H-pyrazol-5-yl)-3H-imidazo[4,5-b]pyridin-5-amine dihydrochloride]
IC50 (IL-6-STAT3 signaling): 66 nM | IC50 (JAK2): 1.7 nM | IC50 (JAK3; enzyme assay, 2 micromolar ATP, n=6, read-out: IC50 against JAK3): 8 nM | selectivity for JAK1 and JAK2 over JAK3 in the enzyme assays (JAK3; enzyme assays, JAK1 and JAK2 versus JAK3): greater than four-fold
